System: isolated rat hearts
Assay: Langendorff perfused isolated rat hearts: electrophysiology and hemodynamics
Details: 10 μM
Description: Animals: Adult male Sprague-Dawley rats (n=56, 200-250 grams) and Guinea pigs (n=19, 400-700 grams) obtained from Envigo Laboratories (Jerusalem, Israel) were bred and grown in Ben-Gurion University of the Negev, Israel. Experiments in rats and guinea pigs were approved by the institutional ethics committee of Ben-Gurion University of the Negev, Israel (Protocol No. IL-24-05-2020(D) and were carried out in strict accordance with the Guide for the Care and Use of Laboratory Animals of the National Institutes of Health. The animals were kept under standardized conditions: 12:12 light: dark cycles at 20-24° C. and 30-70% relative humidity.
Perfused isolated hearts—Langendorff method: The isolated heart experiment setup was performed as described in Etzion et al., Am J Physiol Heart Circ Physiol (2008) 295, H1460-1469; and Mor et al., J Pharmacol Exp Ther (2013) 344, 59-67.]. Briefly, each animal was anesthetized with 2% isoflurane and an intraperitoneal (IP) injection of pentobarbital (60 mg/kg), followed by IP injection of Heparin (1000 U/kg). The heart was rapidly excised and placed into ice-cold Tyrode's buffer solution (consisted of 140 mM NaCl, 5.4 mM KCl, 0.5 mM MgCl2, 2.5 mM CaCl2, 0.39 mM NaH2PO4, 10 mM HEPES and 11 mM glucose, and titrated to pH 7.4 with NaOH). The aorta was cannulated and connected to a pre-heated (37° C.) and oxygenated perfusion system with Tyrode's solution while perfusion pressure was maintained at about 70 mmHg throughout the experiment. Prior to the experiment, the heart was left in Tyrode's solution to stabilize for 20 minutes for hemodynamic measurements, the left atrial appendage was excised, and a collapsed latex balloon was inserted into the left ventricle (LV) through the mitral valve. Once positioned, the balloon was filled with double distilled water reaching an end-diastolic pressure of 10-15 mmHg. Coronary perfusion pressure and LV pressure were recorded by a pressure amplifier (ETH-256C amplifier and B-100 probes, iWorx, NH, USA). Electrophysiological signals were recorded from the high right atrium (HRA) via a miniature quadripolar hook electrode (for simultaneous pacing and recording) and from the LV via a bipolar hook electrode. Electrical signals were filtered (1-2 kHz) and recorded by two voltage amplifiers (Model 3000, A-M Systems, Carlsberg, WA, USA). Signals were interfaced with a PC using an A/D converter (PCI-6024E, National Instruments, Austin TX, USA) and a custom-designed program developed with LabVIEW programing language (National Instruments, Austin, TX, USA) to control signal acquisition, data saving and off-line analysis. Measured physiological parameters during the experiment included perfusion flow (ml/minute) as a marker for coronary perfusion pressure, LV developed pressure, dP/dt±(representing the rate of rise of left ventricular pressure during isovolumetric contraction as a marker for LV contractility), heart rate, PR, and RR intervals. Tram-34 and BA6b9 were applied for a 20-minutes incubation period and physiological parameters were recorded.
Effective refractory period measurements: Using both custom-made quadripolar electrode inserted on the HRA and two bipolar electrodes (recording and pacing) on the LV, allowed measurement of the effective refractory period (ERP) at the atrial level (atrial effective refractory period, AERP), atrioventricular level (AVERP), and ventricular level (VERP). For ERP measurement, a programmed S1S2 stimulation protocol was performed using double diastolic threshold intensity. The protocol consisted of ten S1-S2 intervals of 150 milliseconds (ms) followed by an S1-S2 interval that was reduced by 1 ms each time, until pacing capture failed three consecutive times. AERP, AVERP, and VERP were measured and recorded prior and after exposure to the used inhibitor, either Tram-34 or BA6b9.

SMILES: CCCCCCCn1c(=O)oc2ccccc21 [BA6b9, 3-heptylbenzo[d]oxazol-2(3H)-one]
- AERP (effect): prolonged
- AVERP (effect): prolonged
- VERP (effect): did not change
- coronary flow (perfusion flow velocity): minimal effect
- left ventricular filling pressure (developed pressure): reduced
- maximal pressure change in left ventricular contractility (dP/dt max): does not effect it
- minimal pressure change in left ventricular contractility (dP/dt min): does not effect it
- AERP (from 56 ms before compound): 63 ms
- PR interval (from 56 ms before compound): 68 ms
- AVERP (from 84 ms before compound): 89 ms
- heart rate (from 228 bpm before compound): 196 bpm

— patent US20240366571A1, “MODULATORS OF SK4 POTASSIUM CHANNEL AND USES THEREOF” (Ramot at Tel-Aviv University Ltd., priority 2022, published 2024)
